Assay [1] deals with chronically scrapie-infected N2a/Bos2 cells. It is filed as cell-based, mouse.
Assay [2] deals with N2a/Bos2 cells exposed to 0.1% scrapie-infected brain homogenate (RML prions). It is filed as cell-based, mouse.

The record followed here is patent US20030049249A1 (priority 2001, published 2003).

Consider “phosphatidylinositol-specific phospholipase C [PIPLC]”, for which the “effect on PrPSc in chronically infected cells” value in assay [1] is listed as “causes rapid loss of PrPSc”. Moreover, the “effect on appearance of PrPSc” value in assay [2] (PIPLC 0.25, 0.5, 1 and 2 units/ml before and/or during exposure of a susceptible cell to prions) is “prevents appearance of PrPSc”. For the same substance, the “concentration that sufficed to prevent appearance of PrPSc” value in assay [2] (added 2 h before and during 3-day exposure to 0.1% scrapie-infected brain homogenate, cell blot after 14 days in absence of PIPLC) stood at 0.25 units/ml.
